Experimental data as given in PubChem BioAssay (NCI).
“And” between values parts separate entries of the source, which are not always exact repeats. Identical values can stand only once.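 Cultured in 96-well plates, cells were exposed to test compound for 48 hours across five concentrations. Here, GI50 denotes the concentration required for 50% inhibition of growth. TGI: total growth inhibition.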

Experiments:
Assay in all cases: inhibition of tumour cell growth, NCI panel, 48 h
[1] = test system: DU-145 prostate
[2] = test system: NCI-H460 lung
[3] = test system: SNB-19 CNS
[4] = test system: A549 NSCLC
[5] = test system: T-47D breast
[6] = test system: RPMI-8226 leukemia
[7] = test system: U251 CNS
[8] = test system: 786-0 renal
[9] = test system: SNB-75 CNS
[10] = test system: MOLT-4 leukemia

Compound | TGI [1] | TGI [2] | TGI [3] | TGI [4] | TGI [5] | TGI [6] | TGI [7] | TGI [8] | TGI [9] | TGI [10] | GI50 [1] | GI50 [2] | GI50 [3] | GI50 [4] | GI50 [5] | GI50 [6] | GI50 [7] | GI50 [8] | GI50 [9] | GI50 [10]
O=C(O)CSCc1cccc2ccccc12 | > 100 µM | > 100 µM | > 100 µM | > 100 µM | > 100 µM | > 100 µM | > 100 µM | > 100 µM | > 100 µM | > 100 µM | – | – | – | – | – | – | – | – | – | –
Cc1ccc(C(=O)N(CCCN)[C@@H](c2nc3cc(Cl)ccc3c(=O)n2Cc2ccccc2)C(C)C)cc1 | – | 1.09 µM and 1.25 µM | 2.12 µM and 1.9 µM | 1.4 µM and 1.71 µM | 1.98 µM and 1.67 µM | 1.72 µM | 1.19 µM and 1.53 µM | 2.08 µM and 1.98 µM | 1.56 µM and 1.37 µM | 3.87 µM and 1.45 µM | < 0.01 µM | < 0.01 µM | < 0.01 µM | < 0.01 µM | < 0.01 µM | < 0.01 µM | < 0.01 µM | < 0.01 µM | < 0.01 µM | < 0.01 µM
O=[As](O)(O)c1ccc(NCc2ccccc2)cc1 | > 100 µM | > 100 µM | > 100 µM | > 100 µM | > 100 µM | > 100 µM | > 100 µM | > 100 µM | > 100 µM | > 100 µM | – | – | – | – | – | – | – | – | – | –
CCCN(CCC)CCCNCc1cc(I)cc(C)c1O | 42 µM | 26 µM | 40.8 µM | 42.4 µM | 42.1 µM | 27.2 µM | 29.4 µM | 26.4 µM | 29 µM | 23.4 µM | 19.4 µM | 13.3 µM | 18.2 µM | 19.4 µM | 15.9 µM | 10.8 µM | 15.9 µM | 13.6 µM | 14.6 µM | 10.7 µM
C=C(Cn1c(=O)c2ccccc2c2ccccc21)c1ccc(C(=O)Nc2ccccc2N)cc1 | > 100 µM | > 100 µM | > 100 µM | > 100 µM | > 69.3 µM | 4.36 µM | > 100 µM | > 100 µM | > 94.4 µM | 0.196 µM | > 45.9 µM | 21.3 µM | 42.9 µM | > 48.3 µM | 3.86 µM | 0.765 µM | 16.3 µM | 5.95 µM | 4.41 µM | 0.0415 µM
O=C(/C=C/c1ccc(B(O)O)cc1)/C=C/c1ccc(B(O)O)cc1 | 14.9 µM | 23.6 µM | 21.2 µM | 15.2 µM | 12.3 µM | 8.21 µM | 10.4 µM | 5.57 µM | 14.9 µM | 66.3 µM | 4.63 µM | 8.19 µM | 6.09 µM | 3.55 µM | 2.7 µM | 2.51 µM | 2.82 µM | 2.16 µM | 3.48 µM | 3.59 µM
CC(=O)N1CCN(C2=Nc3ccccc3CO2)C1=S | > 100 µM | > 100 µM | > 100 µM | > 100 µM | > 100 µM | > 100 µM | > 100 µM | > 100 µM | > 100 µM | > 100 µM | > 100 µM | 70.5 µM | > 100 µM | > 100 µM | 33 µM | 41.4 µM | > 100 µM | > 100 µM | 40.1 µM | 41.9 µM
Cc1nc2ccc(CN(C)c3ccc(C(=O)N[C@@H](CCC(=O)O)C(=O)O)s3)cc2c(=O)[nH]1 | > 100 µM | > 100 µM | > 100 µM | > 100 µM | > 100 µM | > 100 µM | > 100 µM | > 100 µM | > 100 µM | > 100 µM | – | – | – | – | – | – | – | – | – | –
Cc1nc2sccn2c1/C=C1/C(=O)Nc2ccccc21 | > 100 µM | > 100 µM | > 100 µM | > 100 µM | > 100 µM | > 100 µM | > 74.3 µM | > 100 µM | > 74.2 µM | > 31.6 µM | 24.4 µM | 5.05 µM | > 44 µM | 7.65 µM | 0.499 µM | 7.16 µM | 4.96 µM | 15.1 µM | 17.7 µM | 4.83 µM
C=C1C(=O)O[C@H]2[C@H]1CC/C(CNC(=O)/C=C/c1ccc(Br)cc1)=C\CC[C@@]1(C)O[C@@H]21 | 2.02 µM | 3.3 µM | 4.6 µM | 8.72 µM | 4.73 µM | 3.26 µM | 3.09 µM | 2.45 µM | 2.49 µM | 4.25 µM | 0.743 µM | 1.63 µM | 1.61 µM | 2.43 µM | 1.74 µM | 0.448 µM | 1.46 µM | 1.05 µM | 1.23 µM | 0.678 µM
CC(=O)C1=C(O)C=C2Oc3c(C(=O)/C=C/c4cc(C(F)(F)F)cc(C(F)(F)F)c4)c(O)c(C)c(O)c3[C@]2(C)C1=O | 4.91 µM | 1.9 µM | 4.89 µM | 4.42 µM | 1.37 µM | 1.28 µM | 1.7 µM | 2.35 µM | 4.91 µM | 15 µM | 0.63 µM | 0.521 µM | 0.674 µM | 0.666 µM | 0.385 µM | 0.442 µM | 0.532 µM | 0.602 µM | 2.1 µM | 0.437 µM
C(=Nc1ccccc1)C1CCCC[N-]1.C(=Nc1ccccc1)C1CCCC[N-]1.[Cu+2].[O-][Cl+3]([O-])([O-])O (centres undefined) | 36.9 µM | > 58.2 µM | 38.4 µM | > 57.1 µM | > 100 µM | 10.9 µM | 30.4 µM | > 58.7 µM | 59 µM | 11.7 µM | 8.48 µM | 11.2 µM | 9.94 µM | > 36.8 µM | 21.6 µM | 3.52 µM | 10.7 µM | 13.3 µM | 23.6 µM | 4.16 µM
COc1cccc([C@H]2CC(=O)c3cc4c(cc3N2)OCO4)c1 | 13.8 µM | – | 1.81 µM | > 100 µM | > 100 µM | 1.01 µM | > 100 µM | > 100 µM | > 100 µM | 0.0821 µM | 0.067 µM | – | – | 0.125 µM | – | 0.0608 µM | 0.0491 µM | 0.0789 µM | – | 0.0316 µM
